Experimental data as given in patent US20260272934A1 (The United States of America, as represented by the …, priority 2023, published 2026).

How the values were obtained:
NET = NET (Homo sapiens, UniProt P23975); test: Off-target primary and secondary screen; format: binding; conditions: 10 mM sample
Sigma 1 = Sigma 1 (Homo sapiens, UniProt Q99720); test: Off-target primary and secondary screen; format: binding; conditions: 10 mM sample
PBR = PBR (Homo sapiens, UniProt P30536); test: Off-target primary and secondary screen; format: binding; conditions: for Primary screen AVE (% inhib) ± SD: 10 mM sample
Sequence of PBR (P30536 whole entry, species assumed): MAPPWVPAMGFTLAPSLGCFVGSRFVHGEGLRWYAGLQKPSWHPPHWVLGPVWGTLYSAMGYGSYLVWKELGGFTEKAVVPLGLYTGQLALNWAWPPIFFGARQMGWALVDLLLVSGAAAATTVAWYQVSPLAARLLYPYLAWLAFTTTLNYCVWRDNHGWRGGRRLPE

Beta2 = Beta2 (Homo sapiens, UniProt P07550); test: Off-target primary and secondary screen; format: binding; conditions: 10 mM sample
Sequence of Beta2 (P07550 whole entry): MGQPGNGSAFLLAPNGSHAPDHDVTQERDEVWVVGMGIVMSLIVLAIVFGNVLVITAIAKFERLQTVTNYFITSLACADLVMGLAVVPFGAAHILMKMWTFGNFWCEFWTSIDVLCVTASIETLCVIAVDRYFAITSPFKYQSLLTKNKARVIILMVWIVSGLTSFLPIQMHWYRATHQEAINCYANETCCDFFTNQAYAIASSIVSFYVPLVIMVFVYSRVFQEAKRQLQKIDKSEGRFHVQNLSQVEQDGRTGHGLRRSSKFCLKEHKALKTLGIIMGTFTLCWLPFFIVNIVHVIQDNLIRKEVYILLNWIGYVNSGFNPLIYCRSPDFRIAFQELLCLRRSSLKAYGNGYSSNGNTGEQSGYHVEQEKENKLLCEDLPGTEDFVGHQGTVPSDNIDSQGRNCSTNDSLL

M3 = M3 (Homo sapiens, UniProt P20309); test: Off-target primary and secondary screen; format: binding; conditions: 10 mM sample
Sequence of M3 (P20309 whole entry): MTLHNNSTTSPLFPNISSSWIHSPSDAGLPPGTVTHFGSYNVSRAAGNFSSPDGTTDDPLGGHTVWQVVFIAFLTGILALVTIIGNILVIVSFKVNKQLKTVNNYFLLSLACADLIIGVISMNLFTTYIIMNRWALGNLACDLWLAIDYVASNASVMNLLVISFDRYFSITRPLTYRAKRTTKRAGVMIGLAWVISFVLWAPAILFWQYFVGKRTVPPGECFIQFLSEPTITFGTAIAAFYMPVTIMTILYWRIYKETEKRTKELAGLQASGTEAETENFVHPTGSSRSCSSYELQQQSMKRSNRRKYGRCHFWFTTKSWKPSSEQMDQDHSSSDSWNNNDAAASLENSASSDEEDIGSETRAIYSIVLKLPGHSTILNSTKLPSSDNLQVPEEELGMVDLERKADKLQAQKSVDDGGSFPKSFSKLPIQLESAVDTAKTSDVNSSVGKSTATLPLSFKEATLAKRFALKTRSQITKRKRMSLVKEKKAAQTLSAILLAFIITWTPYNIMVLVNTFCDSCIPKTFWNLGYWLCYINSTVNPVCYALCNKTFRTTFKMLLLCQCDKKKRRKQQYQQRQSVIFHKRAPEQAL

Alpha1B = Alpha1B (Homo sapiens, UniProt P35368); test: Off-target primary and secondary screen; format: binding; conditions: 10 mM sample
5-HT1E = 5-HT1E (Homo sapiens, UniProt P28566); test: Off-target primary and secondary screen; format: binding; conditions: 10 mM sample
Sequence of 5-HT1E (P28566 whole entry, species assumed): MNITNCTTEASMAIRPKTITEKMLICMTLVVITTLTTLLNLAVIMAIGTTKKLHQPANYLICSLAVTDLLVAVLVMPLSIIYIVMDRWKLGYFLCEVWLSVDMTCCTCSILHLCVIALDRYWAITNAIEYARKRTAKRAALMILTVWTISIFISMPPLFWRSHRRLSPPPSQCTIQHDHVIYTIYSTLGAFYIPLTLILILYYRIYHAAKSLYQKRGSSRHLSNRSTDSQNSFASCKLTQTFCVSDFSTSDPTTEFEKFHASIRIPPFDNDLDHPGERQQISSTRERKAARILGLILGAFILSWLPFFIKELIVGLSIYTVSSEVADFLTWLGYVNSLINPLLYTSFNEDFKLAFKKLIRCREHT

Alpha2B = Alpha2B (Homo sapiens, UniProt P18089); test: Off-target primary and secondary screen; format: binding; conditions: 10 mM sample
Sequence of Alpha2B (P18089 whole entry): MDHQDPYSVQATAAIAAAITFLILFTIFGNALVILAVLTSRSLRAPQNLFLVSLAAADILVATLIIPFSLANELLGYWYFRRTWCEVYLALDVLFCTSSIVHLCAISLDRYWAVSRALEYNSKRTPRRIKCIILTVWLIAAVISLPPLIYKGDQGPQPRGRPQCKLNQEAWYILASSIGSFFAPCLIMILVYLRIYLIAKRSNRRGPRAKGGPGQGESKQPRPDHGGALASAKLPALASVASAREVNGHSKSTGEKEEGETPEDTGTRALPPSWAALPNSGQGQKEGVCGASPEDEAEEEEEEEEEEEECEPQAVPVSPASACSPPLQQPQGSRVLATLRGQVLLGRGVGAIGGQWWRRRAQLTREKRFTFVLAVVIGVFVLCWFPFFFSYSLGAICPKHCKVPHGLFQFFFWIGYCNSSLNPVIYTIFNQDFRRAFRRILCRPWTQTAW

D1 = D1 (Homo sapiens, UniProt P21728); test: Off-target primary and secondary screen; format: binding; conditions: 10 mM sample
Sequence of D1 (P21728 whole entry): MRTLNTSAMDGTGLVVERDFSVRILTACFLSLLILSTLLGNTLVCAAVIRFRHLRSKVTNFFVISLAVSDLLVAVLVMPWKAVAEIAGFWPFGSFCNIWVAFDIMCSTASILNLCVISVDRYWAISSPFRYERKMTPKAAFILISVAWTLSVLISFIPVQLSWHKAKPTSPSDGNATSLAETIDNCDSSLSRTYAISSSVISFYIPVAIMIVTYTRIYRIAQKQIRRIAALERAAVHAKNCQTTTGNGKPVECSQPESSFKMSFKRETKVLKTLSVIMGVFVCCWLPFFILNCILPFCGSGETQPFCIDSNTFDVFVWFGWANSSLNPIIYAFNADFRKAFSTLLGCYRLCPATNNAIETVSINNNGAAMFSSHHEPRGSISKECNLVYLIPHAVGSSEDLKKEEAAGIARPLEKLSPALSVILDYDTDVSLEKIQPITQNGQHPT

5-HT5A = 5-HT5A (Homo sapiens, UniProt P47898); test: Off-target primary and secondary screen; format: binding; conditions: 10 mM sample
5-HT7A = 5-HT7A (Homo sapiens, UniProt P34969); test: Off-target primary and secondary screen; format: binding; conditions: 10 mM sample
KOR = KOR (Homo sapiens, UniProt P41145); test: Off-target primary and secondary screen; format: binding; conditions: 10 mM sample
BZP Rat brain site = test: Off-target primary and secondary screen; format: binding; conditions: for Primary screen AVE (% inhib) ± SD: 10 mM sample
Beta1 = Beta1 (Homo sapiens, UniProt P08588); test: Off-target primary and secondary screen; format: binding; conditions: 10 mM sample
Sequence of Beta1 (P08588 whole entry): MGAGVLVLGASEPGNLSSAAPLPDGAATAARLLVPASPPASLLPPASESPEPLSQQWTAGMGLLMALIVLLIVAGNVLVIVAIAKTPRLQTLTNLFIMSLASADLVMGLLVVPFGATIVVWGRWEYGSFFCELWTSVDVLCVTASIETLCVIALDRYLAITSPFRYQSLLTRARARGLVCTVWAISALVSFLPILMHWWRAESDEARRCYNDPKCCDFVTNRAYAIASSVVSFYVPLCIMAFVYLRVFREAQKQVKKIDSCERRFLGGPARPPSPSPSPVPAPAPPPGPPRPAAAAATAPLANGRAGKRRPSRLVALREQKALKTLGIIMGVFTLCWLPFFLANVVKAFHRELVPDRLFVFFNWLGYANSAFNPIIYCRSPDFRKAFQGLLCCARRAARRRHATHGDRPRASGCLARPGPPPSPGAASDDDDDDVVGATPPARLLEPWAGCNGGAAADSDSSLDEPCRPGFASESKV

[1] = target: T1, full-length Plk1 / biotinylated PBIP1 phospho-T78 peptide interaction (Homo sapiens, UniProt P53350); test: ELISA-based PBD1-binding inhibition assay; conditions: at least three independent experiments; read-out: ELISA (IC50) Mean ± SEM
T1 construct: HA; EGFP; expressed in transfected cells; host or cells: HEK293A cells infected with adenovirus; total lysates
T1 sequence (P53350 whole entry): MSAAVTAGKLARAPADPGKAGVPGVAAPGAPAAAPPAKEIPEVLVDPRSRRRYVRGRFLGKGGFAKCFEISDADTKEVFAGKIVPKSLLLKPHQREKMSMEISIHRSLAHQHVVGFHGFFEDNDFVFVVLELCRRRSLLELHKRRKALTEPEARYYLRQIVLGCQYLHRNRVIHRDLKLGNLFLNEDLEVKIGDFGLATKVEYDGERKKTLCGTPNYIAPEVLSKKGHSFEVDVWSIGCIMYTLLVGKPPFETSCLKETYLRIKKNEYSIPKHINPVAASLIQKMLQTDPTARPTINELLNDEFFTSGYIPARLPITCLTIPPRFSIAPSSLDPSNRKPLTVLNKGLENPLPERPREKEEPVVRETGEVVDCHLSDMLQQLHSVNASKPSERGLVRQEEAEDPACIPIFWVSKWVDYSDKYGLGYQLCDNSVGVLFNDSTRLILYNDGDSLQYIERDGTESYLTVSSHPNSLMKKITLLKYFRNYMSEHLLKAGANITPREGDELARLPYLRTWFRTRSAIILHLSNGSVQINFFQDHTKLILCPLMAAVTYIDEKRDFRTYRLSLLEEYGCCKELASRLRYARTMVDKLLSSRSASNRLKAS

SERT = SERT (Homo sapiens, UniProt P31645); test: Off-target primary and secondary screen; format: binding; conditions: 10 mM sample
[2] = system: multiple myeloma-derived L363 cells; test: Colorimetric MTS cell viability assay; format: cell-based
From the text: • *Data from Park, J. E., et al {Park, 2023 #3387}. **Data from Alverez C. N., et al {Alverez, 2020 #3186}. N. S., Not significant; N. D., Not determined. ^a IC50 values determined from at least three independent experiments except as noted in parentheses. b A colorimetric MTS cell viability assay carried out using multiple myeloma-derived L363 cells.

Aipha1D = Aipha1D (Homo sapiens, UniProt P25100); test: Off-target primary and secondary screen; format: binding; conditions: 10 mM sample
5-HT2B = 5-HT2B (Homo sapiens, UniProt P41595); test: Off-target primary and secondary screen; format: binding; conditions: 10 mM sample
5-HT1B = 5-HT1B (Homo sapiens, UniProt P28222); test: Off-target primary and secondary screen; format: binding; conditions: 10 mM sample
H3 = H3 (Homo sapiens, UniProt Q9Y5N1); test: Off-target primary and secondary screen; format: binding; conditions: 10 mM sample
Sequence of H3 (Q9Y5N1 whole entry): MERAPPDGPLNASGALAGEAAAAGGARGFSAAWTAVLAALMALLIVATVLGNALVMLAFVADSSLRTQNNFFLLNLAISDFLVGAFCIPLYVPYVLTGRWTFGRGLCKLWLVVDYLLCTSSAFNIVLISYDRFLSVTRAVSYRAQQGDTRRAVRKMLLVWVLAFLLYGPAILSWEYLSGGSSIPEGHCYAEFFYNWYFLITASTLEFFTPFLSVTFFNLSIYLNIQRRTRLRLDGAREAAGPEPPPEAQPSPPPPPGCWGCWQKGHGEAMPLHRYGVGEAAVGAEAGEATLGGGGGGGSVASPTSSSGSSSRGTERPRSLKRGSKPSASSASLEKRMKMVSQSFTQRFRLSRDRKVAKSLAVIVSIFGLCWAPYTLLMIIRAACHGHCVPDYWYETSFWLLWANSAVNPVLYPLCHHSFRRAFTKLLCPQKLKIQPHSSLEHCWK

[3] = Conversion of Allopole to Allopole-A under various buffer conditions (mass spectroscopy); format: physicochemical; conditions: RT, 1 h; for Compound detected / Compound detected, % of total / Compound detected, pk area: 100 uM Allopole incubated
Description: This Example illustrates the conversion of Allopole to Allopole-A under various buffer conditions, RT, 1 h (JE), as set forth in Table 4
Samples were prepared by incubating Allopole in the indicated buffer conditions without or with 5 mM GSH for 1 h, at RT.

D5 = D5 (Homo sapiens, UniProt P21918); test: Off-target primary and secondary screen; format: binding; conditions: 10 mM sample
Sequence of D5 (P21918 whole entry): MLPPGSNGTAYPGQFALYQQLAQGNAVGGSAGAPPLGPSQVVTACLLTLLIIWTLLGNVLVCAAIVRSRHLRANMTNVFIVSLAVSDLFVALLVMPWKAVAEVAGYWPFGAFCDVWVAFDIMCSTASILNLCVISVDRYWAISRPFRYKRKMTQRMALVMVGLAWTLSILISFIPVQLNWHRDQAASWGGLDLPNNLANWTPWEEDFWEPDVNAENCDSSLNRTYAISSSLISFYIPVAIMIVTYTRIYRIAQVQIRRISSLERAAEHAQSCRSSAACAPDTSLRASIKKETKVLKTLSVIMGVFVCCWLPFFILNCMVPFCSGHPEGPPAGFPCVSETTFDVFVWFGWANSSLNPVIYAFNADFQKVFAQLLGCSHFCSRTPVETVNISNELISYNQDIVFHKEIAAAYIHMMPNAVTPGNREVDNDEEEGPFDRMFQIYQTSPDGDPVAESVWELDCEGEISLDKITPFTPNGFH

M4 = M4 (Homo sapiens, UniProt P08173); test: Off-target primary and secondary screen; format: binding; conditions: 10 mM sample
GABAA = test: Off-target primary and secondary screen; format: binding; conditions: for Primary screen AVE (% inhib) ± SD: 10 mM sample
H2 = H2 (Homo sapiens, UniProt P25021); test: Off-target primary and secondary screen; format: binding; conditions: 10 mM sample
Sequence of H2 (P25021 whole entry): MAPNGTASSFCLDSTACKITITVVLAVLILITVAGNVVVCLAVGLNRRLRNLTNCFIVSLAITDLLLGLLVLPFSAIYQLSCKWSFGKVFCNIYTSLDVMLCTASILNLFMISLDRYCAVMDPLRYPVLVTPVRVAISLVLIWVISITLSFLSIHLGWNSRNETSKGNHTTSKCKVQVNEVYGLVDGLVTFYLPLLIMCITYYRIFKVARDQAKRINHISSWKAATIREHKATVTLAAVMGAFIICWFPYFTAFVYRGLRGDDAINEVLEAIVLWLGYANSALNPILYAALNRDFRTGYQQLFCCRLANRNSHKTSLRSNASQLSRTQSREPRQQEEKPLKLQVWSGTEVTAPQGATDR

M1 = M1 (Homo sapiens, UniProt P11229); test: Off-target primary and secondary screen; format: binding; conditions: 10 mM sample
[4] = buffer 2 (1x PBS pH = 7.4), no GSH
[5] = buffer 3 (20 mM HEPES pH = 7.0), no GSH

Compound: O=c1c2sc(Cl)cc2n2c(=S)[nH]nc2n1CC1CC1 [Compound 19, 7-Chloro-4-(cyclopropylmethyl)-1-thioxo-2,4-dihydrothieno[2,3-e][1,2,4]triazolo[4,3-a]pyrimidin-5 (1H)-one]
- Primary screen AVE (% inhib) ± SD (NET): -39.3 ± 20.6 % inhib
- Primary screen AVE (% inhib) ± SD (Sigma 1): 2.0 ± 21.4 % inhib
- Ki (PBR): > 10 µM
- Primary screen AVE (% inhib) ± SD (PBR): 5.3 ± 8.3 % inhib
- Primary screen AVE (% inhib) ± SD (Beta2): -2.1 ± 19.7 % inhib
- Primary screen AVE (% inhib) ± SD (M3): 7.5 ± 45.6 % inhib
- Primary screen AVE (% inhib) ± SD (Alpha1B): -7.7 ± 9.7 % inhib
- Primary screen AVE (% inhib) ± SD (5-HT1E): 31.3 ± 7.6 % inhib
- Primary screen AVE (% inhib) ± SD (Alpha2B): -6.4 ± 7.1 % inhib
- Primary screen AVE (% inhib) ± SD (D1): -17.2 ± 25.0 % inhib
- Primary screen AVE (% inhib) ± SD (5-HT5A): -1.4 ± 14.4 % inhib
- Primary screen AVE (% inhib) ± SD (5-HT7A): -88.1 ± 20.8 % inhib
- Primary screen AVE (% inhib) ± SD (KOR): -0.3 ± 8.7 % inhib
- Ki (BZP Rat brain site): > 10 µM
- Primary screen AVE (% inhib) ± SD (BZP Rat brain site): 2.3 ± 21.8 % inhib
- Primary screen AVE (% inhib) ± SD (Beta1): -6.2 ± 19.4 % inhib
- IC50 [1]: 1.4 ± 0.03 µM
- Primary screen AVE (% inhib) ± SD (SERT): -28.9 ± 28.7 % inhib
- Cell efficacy (GI50) Mean ± SD ([2]; N.S. = Not significant): N.S.
- Primary screen AVE (% inhib) ± SD (Aipha1D): -9.9 ± 23.4 % inhib
- Primary screen AVE (% inhib) ± SD (5-HT2B): -17.7 ± 11.2 % inhib
- Primary screen AVE (% inhib) ± SD (5-HT1B): 17.7 ± 42.2 % inhib
- Primary screen AVE (% inhib) ± SD (H3): -18.5 ± 3.8 % inhib
- Compound detected ([3]; buffer 1 + 5 mM GSH): 95.4 µmol/L
- Compound detected, % of total ([3]; buffer 1 + 5 mM GSH): 95.4 % of total
- Compound detected, pk area ([3]; buffer 1 + 5 mM GSH): 1.38E+09
- Compound detected [3, 4]: 0.8 µmol/L
- Compound detected, % of total [3, 4]: 0.8 % of total
- Compound detected, pk area [3, 4]: 4.90E+06
- Compound detected ([3]; buffer 2 + 5 mM GSH): 77.9 µmol/L
- Compound detected, % of total ([3]; buffer 2 + 5 mM GSH): 77.9 % of total
- Compound detected, pk area ([3]; buffer 2 + 5 mM GSH): 5.81E+08
- Compound detected [3, 5]: 1.9 µmol/L
- Compound detected, % of total [3, 5]: 1.9 % of total
- Compound detected, pk area [3, 5]: 1.56E+06
- Compound detected ([3]; buffer 3 + 5 mM GSN): 66.9 µmol/L
- Compound detected, % of total ([3]; buffer 3 + 5 mM GSN): 66.9 % of total
- Compound detected, pk area ([3]; buffer 3 + 5 mM GSN): 1.89E+08
- Compound detected ([3]; buffer 3 [sic], no GSH): 1.3 µmol/L
- Compound detected, % of total ([3]; buffer 3 [sic], no GSH): 1.3 % of total
- Compound detected, pk area ([3]; buffer 3 [sic], no GSH): 9.61E+08
- Primary screen AVE (% inhib) ± SD (D5): 28.7 ± 10.7 % inhib
- Primary screen AVE (% inhib) ± SD (M4): -8.8 ± 4.8 % inhib
- Ki (GABAA): > 10 µM
- Primary screen AVE (% inhib) ± SD (GABAA): 35.7 ± 11.1 % inhib
- Primary screen AVE (% inhib) ± SD (H2): -27.4 ± 17.1 % inhib
- Primary screen AVE (% inhib) ± SD (M1): 39.3 ± 10.7 % inhib

Compound: Cn1cnc([N+](=O)[O-])c1Sc1nnc2n(CC3CC3)c(=O)c3sc(Cl)cc3n12 [Compound 20, 7-Chloro-4-(cyclopropylmethyl)-1-((1-methyl-4-nitro-1H-imidazol-5-yl)thio) thieno[2,3-e][1,2,4]triazolo[4,3-a]pyrimidin-5 (4H)-one]
- Primary screen AVE (% inhib) ± SD (NET): -56.8 ± 10.5 % inhib
- Primary screen AVE (% inhib) ± SD (Sigma 1): 41.8 ± 11.9 % inhib
- Ki (PBR): > 10 µM
- Primary screen AVE (% inhib) ± SD (PBR): -2.1 ± 5.3 % inhib
- Primary screen AVE (% inhib) ± SD (Beta2): 0.1 ± 10.6 % inhib
- Primary screen AVE (% inhib) ± SD (M3): 48.3 ± 21.9 % inhib
- Primary screen AVE (% inhib) ± SD (Alpha1B): -1.6 ± 9.5 % inhib
- Primary screen AVE (% inhib) ± SD (5-HT1E): 22.2 ± 10.5 % inhib
- Primary screen AVE (% inhib) ± SD (Alpha2B): 8.3 ± 16.4 % inhib
- Primary screen AVE (% inhib) ± SD (D1): 21.5 ± 6.8 % inhib
- Primary screen AVE (% inhib) ± SD (5-HT5A): 24.5 ± 9.3 % inhib
- Primary screen AVE (% inhib) ± SD (5-HT7A): 14.9 ± 9.9 % inhib
- Primary screen AVE (% inhib) ± SD (KOR): 3.7 ± 4.1 % inhib
- Ki (BZP Rat brain site): > 10 µM
- Primary screen AVE (% inhib) ± SD (BZP Rat brain site): 9.5 ± 7.6 % inhib
- Primary screen AVE (% inhib) ± SD (Beta1): 67.3 ± 49.1 % inhib
- IC50 [1]: > 25 µM
- Primary screen AVE (% inhib) ± SD (SERT): -56.0 ± 13.9 % inhib
- GI50 ([2]; Homo sapiens, L-363, N.S. = Not significant, read-out: Cell efficacy (GI50) Mean ± SD): 4.09 ± 0.14 µM
- Primary screen AVE (% inhib) ± SD (Aipha1D): -15.1 ± 19.8 % inhib
- Primary screen AVE (% inhib) ± SD (5-HT2B): -0.5 ± 5.0 % inhib
- Primary screen AVE (% inhib) ± SD (5-HT1B): 60.8 ± 40.9 % inhib
- Primary screen AVE (% inhib) ± SD (H3): -12.5 ± 7.9 % inhib
- Compound detected ([3]; buffer 1 + 5 mM GSH): 0.1 µmol/L
- Compound detected, % of total ([3]; buffer 1 + 5 mM GSH): 0.1 % of total
- Compound detected, pk area ([3]; buffer 1 + 5 mM GSH): 8.76E+08
- Compound detected [3, 4]: 97.6 µmol/L
- Compound detected, % of total [3, 4]: 97.6 % of total
- Compound detected, pk area [3, 4]: 6.28E+08
- Compound detected ([3]; buffer 2 + 5 mM GSH): 0.0 µmol/L
- Compound detected, % of total ([3]; buffer 2 + 5 mM GSH): 0.0 % of total
- Compound detected, pk area ([3]; buffer 2 + 5 mM GSH): 2.41E+03
- Compound detected [3, 5]: 93.1 µmol/L
- Compound detected, % of total [3, 5]: 93.1 % of total
- Compound detected ([3]; buffer 3 + 5 mM GSN): 0.0 µmol/L
- Compound detected, % of total ([3]; buffer 3 + 5 mM GSN): 0.0 % of total
- Compound detected, pk area ([3]; buffer 3 + 5 mM GSN): 93500
- Compound detected ([3]; buffer 3 [sic], no GSH): 97.9 µmol/L
- Compound detected, % of total ([3]; buffer 3 [sic], no GSH): 97.9 % of total
- Compound detected, pk area ([3]; buffer 3 [sic], no GSH): 7.45E+08
- stability in buffer ([3]; in the absence of GSH): remains stable
- conversion of the prodrug to the active Allopole-A form ([3]; with 5 mM GSH): rapid conversion
- Primary screen AVE (% inhib) ± SD (D5): 20.9 ± 9.5 % inhib
- Primary screen AVE (% inhib) ± SD (M4): -8.7 ± 9.5 % inhib
- Ki (GABAA): > 10 µM
- Primary screen AVE (% inhib) ± SD (GABAA): 33.3 ± 4.2 % inhib
- Primary screen AVE (% inhib) ± SD (H2): -16.4 ± 21.5 % inhib
- Primary screen AVE (% inhib) ± SD (M1): 50.7 ± 26.1 % inhib
